Experimental data reported in ChEMBL document CHEMBL5149985, “Discovery of cytotoxic natural products from Red Sea sponges: Structure and synthesis” (Eur J Med Chem, 2021).

Tests used:
MDA-MB-231 [1] = assay: Anticancer activity against human MDA-MB-231 assessed as inhibition of cell growth incubated for 48 hrs by SRB assay; format: functional, cell-based; details: MDA-MB-231, 48 h
MDA-MB-231 [2] = assay: Anticancer activity against human MDA-MB-231 cells assessed as inhibition of cell growth; format: functional, cell-based

For `COC1=C(Br)[C@@H]2OC(=O)C[C@]2(O)C=C1Br`, the IC50 (MDA-MB-231 [1]) was 18 µM and the IC50 (MDA-MB-231 [2]) was 18 µM.
